From patent publication US8946144B2, “Phosphonated glycopeptide and lipoglycopeptide antibiotics and uses thereof for the prevention and treatment of bone and joint infections” (The Medicines Company, priority 2006, dated 2015)
In brackets after ≈: the same amount, converted by molar mass.

How the values were obtained:
[1] = test system: S. aureus strain ATCC13709; assay: Antibacterial susceptibility (MIC) in CAMHB; assay type: cell-based; details: S. aureus ATCC 13709; cation adjusted Mueller-Hinton broth; 37° C., 18 h
Protocol: (§1) Susceptibility of S. aureus strain ATCC13709 to the commercial antibiotics and synthesized compounds was determined by following the guidelines set by the Clinical and Laboratory Standards Institute (formerly the National Committee for Clinical Laboratory Standards) (M26-A). Compounds were diluted two-fold serially in either DMSO (Vancomycin 4, Oritavancin 8, compounds 10, 31, 33, 39, 44, 50, 60, 65), DMF (compounds 18 and 21) or in PBS (compound 6) and transferred to cation-adjusted Mueller Hinton broth (CAMHB; Becton Dickinson). 50 μL of compounds diluted in CAMHB was mixed with […] of bacteria diluted in CAMHB in 96-well microtiter plates. The final number of micro-organisms in the assay was 5×10^5 c.f.u. per mL and the final concentration of DMSO or DMF in the assay, if present, was 1.25%. Assays were set up in duplicate and incubated at 37° C. for 18 h. The concentration of compound that inhibited visible growth was reported as the minimum inhibitory concentration (MIC).

[2] = test system: S. aureus strain ATCC13709; assay: Antibacterial susceptibility (MIC) in the presence of 50% serum; assay type: cell-based; details: S. aureus ATCC 13709
Protocol: as §1
Susceptibility testing experiments were also carried out in the presence of serum. These experiments were carried out similar to the susceptibility testing with the following modifications. 75 μL of compounds diluted in CAMHB was mixed with 75 μL of bacteria diluted in 100% serum from any given source (commercial pooled mouse serum (MS) and human serum (HS), Equitech-Bio Inc.). The final concentration of animal serum in the assay was 50% and the concentrations of all other components were identical to those described for susceptibility testing.

[3] = Regeneration of parent drug from bone powder-bound prodrug; assay type: in vitro ADME; details: 24 h incubation, 37° C.
Protocol: Amounts of parent drug “regenerated” from the phosphonated prodrug were measured as follows. Washed bone powder-bound prodrugs from the above experiment were resuspended in 400 μL PBS+2% DMSO or in 400 μL 50% (v/v in PBS+2% DMSO) human or rat serum. The suspension was incubated overnight at 37° C., centrifuged at 13,000 rpm for 2 min and the supernatant was recovered. The amount of regenerated parent drug in the supernatant was determined by measurements using the microbiological assays that were previously described for the prodrugs themselves. The amount of released drug from prodrug was deduced from standard curves of known amounts of parent drug that were used as reference for each experiment. The amount of regenerated drug assessed by this bioassay was corroborated by MIC determination. The percentage of drug regenerated in PBS or serum after the overnight incubation (Table 2) was deduced from the difference between the amount of bound prodrug and the amount of regenerated drug (not shown).

CC(C)C[C@H](C(=O)N[C@H]1C(=O)N[C@@H](CC(N)=O)C(=O)N[C@H]2C(=O)N[C@H]3C(=O)N[C@H](C(=O)N[C@H](C(=O)O)c4cc(O)cc(O)c4-c4cc3ccc4O)[C@H](O[C@H]3C[C@](C)(N)[C@@H](O)[C@H](C)O3)c3ccc(c(Cl)c3)Oc3cc2cc(c3O[C@@H]2O[C@H](CO)[C@@H](O)[C@H](O)[C@H]2O[C@H]2C[C@](C)(NCc3ccc(-c4ccc(Cl)cc4)cc3)[C@@H](O)[C@H](C)O2)Oc2ccc(cc2Cl)[C@H]1O)N(C)C(=O)OCOC(=O)CCCC(P(=O)(O)O)P(=O)(O)O [Compound 60]
Minimum inhibitory concentration, CAMHB [1]: 32 µg/mL (≈ 15.2 µM)
Minimum inhibitory concentration, CAMHB + 50% Human Serum [2]: >32 µg/mL
Minimum inhibitory concentration, CAMHB + 50% Mouse Serum [2]: 32 µg/mL
Minimum inhibitory concentration, CAMHB + 50% Rat Serum [2]: 32 µg/mL
% Conversion (prodrug converted to parent drug) ([3]; 50% rat serum): 0.05%
% Conversion (prodrug converted to parent drug) ([3]; PBS): <LOD

CC(C)C[C@H](C(=O)N[C@H]1C(=O)N[C@@H](CC(N)=O)C(=O)N[C@H]2C(=O)N[C@H]3C(=O)N[C@H](C(=O)N[C@H](C(=O)O)c4cc(O)cc(O)c4-c4cc3ccc4O)[C@H](O[C@H]3C[C@](C)(N)[C@@H](O)[C@H](C)O3)c3ccc(c(Cl)c3)Oc3cc2cc(c3O[C@@H]2O[C@H](CO)[C@@H](O)[C@H](O)[C@H]2O[C@H]2C[C@](C)(NCc3ccc(-c4ccc(Cl)cc4)cc3)[C@@H](O)[C@H](C)O2)Oc2ccc(cc2Cl)[C@H]1O)N(C)C(=O)OCOC(=O)CCC(P(=O)(O)O)P(=O)(O)O.O=C(O)C(F)(F)F.O=C(O)C(F)(F)F [Compound 65]
Minimum inhibitory concentration, CAMHB [1]: 8 µg/mL
Minimum inhibitory concentration, CAMHB + 50% Human Serum [2]: 4 µg/mL
Minimum inhibitory concentration, CAMHB + 50% Mouse Serum [2]: 0.5 µg/mL
Minimum inhibitory concentration, CAMHB + 50% Rat Serum [2]: 1 µg/mL
% Conversion (prodrug converted to parent drug) ([3]; 50% rat serum): 26.4%
% Conversion (prodrug converted to parent drug) ([3]; PBS): 0.2%
